Measurements from patent publication US20250320193A1, “OXOISOINDOLINYL SUBSTITUTED PIPERIDINEDIONE DERIVATIVE AND USE THEREOF” (GLUETACS THERAPEUTICS (SHANGHAI) CO., LTD., priority 2022, published 2025).

Experiments:
IKZF3 = IKZF3 (Homo sapiens (Human), UniProt Q96SW2+Q9UKT9); assay: Western blot, substrate protein expression in hPBMC: IKZF3; type: cell-based; conditions: hPBMC, compound 500 nM, 24 hours, Western blot
Summary of the method: (§1)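 hPBMC, 1×10^6 cells/mL, 24 h compound exposure; RIPA lysis, BCA protein assay, SDS-PAGE, NC membrane immunoblot. Densitometry vs internal control → % protein remaining; degradation % = 100% − remaining; DC50 = conc. at 50% of DMSO band signal.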

[1] = test system: MM.1S cells (human multiple myeloma cells); assay: Tumor cell proliferation inhibition, CCK-8; type: cell-based; conditions: MM1.S, MM.1S cells, CCK-8, read-out: inhibitory activity (IC50, nM) MM.1S
Protocol: (§2) The tumor cells used herein were cultured in a cell culture medium listed in table 2 at 37° C. in an incubator with 5% CO2. Prior to experimentation, all cells used were correctly identified by STR profiling, and tested negative for mycoplasma through routine screenings.
(§3) IC50 values of the compounds of the present disclosure (including the compounds in Table 1 and the Examples 1-305 compounds) were measured using the Meilun Cell Counting Kit-8 kit from Dalian Meilun Biotech Co., Ltd. Assay details are as follows: tumor cells were seeded in a 96-well plate at a density listed in Table 5. After 24 h, 100 μL of the inoculated cells were treated with 0.5 μL of the compounds of the present disclosure (including the compounds in Table 1 and the Examples 1-305 compounds) at 10 different successively decreasing concentrations (starting at the highest concentration of 10 μM; 5-fold serial dilutions). After the cells were treated with the compounds of the present disclosure for a period of time, the cell viability detection reagent was added to the culture medium for cell viability assessment according to the instructions provided with the CCK-8 kit. […] The growth inhibition of the compounds of the present disclosure on cells was plotted by Prism Graphpad software, and the IC50 values of the compounds of the present disclosure were calculated therefrom.

GSPT1 = GSPT1 (Homo sapiens (Human), UniProt P15170+Q96SW2); assay: Western blot, substrate protein expression in hPBMC: GSPT1; type: cell-based; conditions: hPBMC, compound 500 nM, 24 hours, Western blot
Sequence of GSPT1 (P15170 whole entry): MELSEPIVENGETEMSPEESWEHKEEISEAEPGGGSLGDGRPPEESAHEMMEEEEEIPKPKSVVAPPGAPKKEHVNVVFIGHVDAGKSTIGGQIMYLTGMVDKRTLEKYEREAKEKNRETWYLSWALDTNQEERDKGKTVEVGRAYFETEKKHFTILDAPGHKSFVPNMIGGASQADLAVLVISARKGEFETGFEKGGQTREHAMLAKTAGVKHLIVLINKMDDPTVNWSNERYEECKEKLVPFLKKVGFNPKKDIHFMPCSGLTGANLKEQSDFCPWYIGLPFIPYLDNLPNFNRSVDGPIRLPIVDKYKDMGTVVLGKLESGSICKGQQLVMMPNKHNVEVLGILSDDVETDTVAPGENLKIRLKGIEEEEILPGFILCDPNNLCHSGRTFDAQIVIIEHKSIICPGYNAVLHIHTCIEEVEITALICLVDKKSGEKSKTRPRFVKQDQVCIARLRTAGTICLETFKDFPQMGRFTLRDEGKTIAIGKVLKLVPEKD
Sequence of GSPT1 (Q96SW2 whole entry): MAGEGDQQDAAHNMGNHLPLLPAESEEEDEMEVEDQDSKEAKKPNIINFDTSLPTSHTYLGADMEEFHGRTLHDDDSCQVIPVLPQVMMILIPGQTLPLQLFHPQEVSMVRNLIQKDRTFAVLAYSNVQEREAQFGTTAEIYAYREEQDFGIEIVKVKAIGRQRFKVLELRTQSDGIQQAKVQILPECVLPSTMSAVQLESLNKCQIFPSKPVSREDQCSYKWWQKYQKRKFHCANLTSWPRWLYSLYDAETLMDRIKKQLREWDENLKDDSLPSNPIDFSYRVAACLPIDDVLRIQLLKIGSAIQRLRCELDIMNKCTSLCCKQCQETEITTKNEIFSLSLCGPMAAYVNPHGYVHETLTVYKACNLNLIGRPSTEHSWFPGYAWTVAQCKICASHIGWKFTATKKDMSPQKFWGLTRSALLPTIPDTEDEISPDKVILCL
Sequence of GSPT1 (Q16531 whole entry partner): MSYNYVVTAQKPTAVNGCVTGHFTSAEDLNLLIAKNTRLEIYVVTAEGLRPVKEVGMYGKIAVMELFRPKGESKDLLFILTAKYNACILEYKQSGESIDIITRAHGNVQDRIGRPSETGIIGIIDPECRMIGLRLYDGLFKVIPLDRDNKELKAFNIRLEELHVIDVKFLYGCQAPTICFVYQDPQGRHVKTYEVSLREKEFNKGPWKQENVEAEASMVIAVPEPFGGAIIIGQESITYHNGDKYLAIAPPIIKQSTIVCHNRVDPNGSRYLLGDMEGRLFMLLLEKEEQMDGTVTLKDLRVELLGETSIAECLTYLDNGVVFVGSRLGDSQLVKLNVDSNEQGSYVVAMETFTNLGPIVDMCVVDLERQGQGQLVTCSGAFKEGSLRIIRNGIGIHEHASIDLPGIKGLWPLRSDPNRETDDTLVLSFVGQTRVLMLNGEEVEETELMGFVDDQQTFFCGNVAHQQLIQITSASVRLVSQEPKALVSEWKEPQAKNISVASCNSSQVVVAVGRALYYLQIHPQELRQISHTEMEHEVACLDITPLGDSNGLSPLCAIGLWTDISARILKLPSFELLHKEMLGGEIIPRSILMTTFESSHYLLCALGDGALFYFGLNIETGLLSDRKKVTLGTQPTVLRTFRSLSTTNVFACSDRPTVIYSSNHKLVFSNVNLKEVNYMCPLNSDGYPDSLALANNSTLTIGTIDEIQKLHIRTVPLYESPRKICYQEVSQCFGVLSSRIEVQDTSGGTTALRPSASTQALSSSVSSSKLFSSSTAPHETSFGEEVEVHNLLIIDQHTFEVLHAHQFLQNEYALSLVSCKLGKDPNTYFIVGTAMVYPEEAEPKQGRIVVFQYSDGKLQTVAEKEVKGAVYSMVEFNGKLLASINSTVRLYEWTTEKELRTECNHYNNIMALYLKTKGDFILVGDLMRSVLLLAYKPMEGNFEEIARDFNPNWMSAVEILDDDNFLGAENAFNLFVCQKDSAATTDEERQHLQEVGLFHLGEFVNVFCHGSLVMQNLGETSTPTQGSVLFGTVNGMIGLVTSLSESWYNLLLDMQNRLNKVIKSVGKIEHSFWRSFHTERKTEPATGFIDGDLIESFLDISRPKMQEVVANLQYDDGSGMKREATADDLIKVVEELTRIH
Summary of the method: as §1

[2] = biological target: human Cereblon WT GST-tagged protein (Homo sapiens (Human), UniProt Q96SW2); assay: CRBN-binding affinity, HTRF (CEREBLON BINDING kit, CISBIO); conditions: HTRF inhibitory activity
Sequence of human Cereblon WT GST-tagged protein (Q96SW2 whole entry): as the sequence (Q96SW2 whole entry) above
Summary of the method: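 HTRF competition format: test compound displaces Thalidomide-Red from GST-tagged human Cereblon WT, detected with a Eu-labelled anti-GST antibody. Percent CRBN binding inhibition was derived from the 620 nm signal, normalized to solvent-control and protein-free blank wells.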

IKZF1 = IKZF1 (Homo sapiens (Human), UniProt Q13422+Q96SW2); assay: Western blot, substrate protein expression in hPBMC: IKZF1; type: cell-based; conditions: hPBMC, compound 500 nM, 24 hours, Western blot
Sequence of IKZF1 (Q13422 whole entry): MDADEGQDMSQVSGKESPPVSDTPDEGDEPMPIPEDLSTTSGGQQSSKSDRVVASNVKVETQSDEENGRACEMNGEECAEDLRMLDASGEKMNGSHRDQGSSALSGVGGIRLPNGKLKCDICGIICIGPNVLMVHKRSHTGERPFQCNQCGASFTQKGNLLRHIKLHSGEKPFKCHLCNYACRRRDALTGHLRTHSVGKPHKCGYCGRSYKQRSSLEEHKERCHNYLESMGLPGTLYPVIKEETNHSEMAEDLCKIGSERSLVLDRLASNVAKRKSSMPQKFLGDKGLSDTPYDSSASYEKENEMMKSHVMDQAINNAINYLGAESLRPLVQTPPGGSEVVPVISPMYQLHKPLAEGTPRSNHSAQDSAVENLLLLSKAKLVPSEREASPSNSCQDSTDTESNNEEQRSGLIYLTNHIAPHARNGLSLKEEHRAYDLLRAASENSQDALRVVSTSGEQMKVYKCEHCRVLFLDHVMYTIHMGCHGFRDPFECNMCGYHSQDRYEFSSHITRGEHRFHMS
Sequence of IKZF1 (Q96SW2 whole entry): as the sequence (Q96SW2 whole entry) above
Sequence of IKZF1 (Q16531 whole entry partner): as the sequence (Q16531 whole entry partner) above
Summary of the method: as §1

[3] = test system: H146 cells (human small cell lung carcinoma cells); assay: Tumor cell proliferation inhibition, CCK-8; type: cell-based; conditions: NCI-H146, H146 cells, CCK-8, read-out: inhibitory activity (IC50, nM) H146
Protocol: as §2, §3

[4] = test system: MDA-MB-231 cells (human breast adenocarcinoma cells); assay: Tumor cell proliferation inhibition, CCK-8; type: cell-based; conditions: MDA-MB-231 cells, CCK-8, read-out: inhibitory activity (IC50, nM) MDA-MB-231
Protocol: as §2, §3

[5] = test system: TMD8 cells (human diffuse large B-cell lymphoma cells); assay: Tumor cell proliferation inhibition, CCK-8; type: cell-based; conditions: TMD8 cells, CCK-8, read-out: inhibitory activity (IC50, nM) TMD8
Protocol: as §2, §3

Sequence of IKZF3 (Q9UKT9 whole entry): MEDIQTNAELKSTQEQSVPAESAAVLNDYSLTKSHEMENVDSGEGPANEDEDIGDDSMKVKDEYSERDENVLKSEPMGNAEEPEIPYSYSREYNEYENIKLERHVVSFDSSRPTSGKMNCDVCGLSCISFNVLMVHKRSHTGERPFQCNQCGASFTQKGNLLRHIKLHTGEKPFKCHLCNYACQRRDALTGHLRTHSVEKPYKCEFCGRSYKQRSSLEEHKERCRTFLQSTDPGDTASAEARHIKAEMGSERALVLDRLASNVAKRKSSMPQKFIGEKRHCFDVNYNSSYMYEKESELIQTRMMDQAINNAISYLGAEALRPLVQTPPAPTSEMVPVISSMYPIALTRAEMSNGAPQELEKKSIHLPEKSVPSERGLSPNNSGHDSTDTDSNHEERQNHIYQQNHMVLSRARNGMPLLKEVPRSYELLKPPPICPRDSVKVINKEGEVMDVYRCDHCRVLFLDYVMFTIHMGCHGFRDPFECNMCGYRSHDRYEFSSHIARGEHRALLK
Sequence of IKZF3 (Q96SW2 whole entry): as the sequence (Q96SW2 whole entry) above
Sequence of IKZF3 (Q16531 whole entry partner): as the sequence (Q16531 whole entry partner) above

| Structure (SMILES) | substrate protein remaining % IKZF3 (IKZF3) | IC50 [1] | substrate protein remaining % GSPT1 (GSPT1) | IC50 [2] | substrate protein remaining % IKZF1 (IKZF1) | IC50 [3] | IC50 [4] | IC50 [5] |
| --- | --- | --- | --- | --- | --- | --- | --- | --- |
| O=C1CCC(N2Cc3cc(CCN4CCN(C(c5ccccc5)c5ccccc5)CC4)ccc3C2=O)C(=O)N1 (stereo not shown) [GT-05696, 3-(5-(2-(4-benzhydrylpiperazin-1-yl)ethyl)-1-oxoisoindolin-2-yl)piperidine-2,6-dione] | A (A represents 0% ≤ substrate protein remaining % ≤ 50%) | 50 to 100 nM | A (A represents 0% ≤ substrate protein remaining % ≤ 50%) | < 500 nM | A (A represents 0% ≤ substrate protein remaining % ≤ 50%) | – | – | – |
| O=C1CCC(N2C(=O)c3ccc(CN4CCC(N(c5ccccc5)c5ccccc5)CC4)cc3C2=O)C(=O)N1 (stereo not shown) [GT-05741, 2-(2,6-dioxopiperidin-3-yl)-5-((4-(diphenylamino)piperidin-1-yl)methyl) isoindoline-1,3-dione] | A (A represents 0% ≤ substrate protein remaining % ≤ 50%) | 10 to 50 nM | A (A represents 0% ≤ substrate protein remaining % ≤ 50%) | – | A (A represents 0% ≤ substrate protein remaining % ≤ 50%) | 50 to 100 nM | 100 to 500 nM | – |
| O=C1CCC(N2Cc3cc(CN4CC5CN(C(c6ccccc6)c6ccccc6)CC5C4)c(F)cc3C2=O)C(=O)N1 (stereo not shown) [GT-06051, 3-(5-((5-benzhydrylhexahydropyrrolo[3,4-c]pyrrol-2 (1H)-yl)methyl)-6-fluoro-1-oxoisoindolin-2-yl)piperidine-2,6-dione] | B (B represents substrate protein remaining % > 50%) | 50 to 100 nM | A (A represents 0% ≤ substrate protein remaining % ≤ 50%) | 500 to 1000 nM | B (B represents substrate protein remaining % > 50%) | 100 to 500 nM | – | – |
| O=C1CCC(N2Cc3cc(C(=O)N4CCN(C(c5ccccc5F)c5ccccc5F)CC4)ccc3C2=O)C(=O)N1 (stereo not shown) [GT-06104, 3-(5-(4-(bis(2-fluorophenyl)methyl)piperazine-1-carbonyl)-1-oxoisoindolin-2-yl)piperidine-2,6-dione] | B (B represents substrate protein remaining % > 50%) | 10 to 50 nM | A (A represents 0% ≤ substrate protein remaining % ≤ 50%) | < 500 nM | A (A represents 0% ≤ substrate protein remaining % ≤ 50%) | 100 to 500 nM | 500 to 1000 nM | – |
| O=C1CCC(N2C(=O)c3ccc(CN4CCN(C(c5cccc(F)c5)c5cccc(F)c5)CC4)cc3C2=O)C(=O)N1 (stereo not shown) [GT-06118, 5-((4-(bis(3-fluorophenyl)methyl)piperazin-1-yl)methyl)-2-(2,6-dioxopiperidin-3-yl) isoindoline-1,3-dione] | A (A represents 0% ≤ substrate protein remaining % ≤ 50%) | 50 to 100 nM | A (A represents 0% ≤ substrate protein remaining % ≤ 50%) | – | A (A represents 0% ≤ substrate protein remaining % ≤ 50%) | 100 to 500 nM | – | 500 to 1000 nM |
| O=C1CCC(N2Cc3cc(CN4CCC(N(c5ccccc5)c5ccccc5)CC4)cc(F)c3C2=O)C(=O)N1 (stereo not shown) [GT-06133, 3-(5-((4-(diphenylamino)piperidin-1-yl)methyl)-7-fluoro-1-oxoisoindolin-2-yl)piperidine-2,6-dione] | B (B represents substrate protein remaining % > 50%) | 10 to 50 nM | A (A represents 0% ≤ substrate protein remaining % ≤ 50%) | < 500 nM | B (B represents substrate protein remaining % > 50%) | 100 to 500 nM | 500 to 1000 nM | – |
| O=C1CCC(N2Cc3cc(C(=O)N4CCN(C(c5ccccc5)c5cccnc5)CC4)ccc3C2=O)C(=O)N1 (stereo not shown) [GT-06142, 3-(1-oxo-5-(4-(phenyl(pyridin-3-yl)methyl)piperazine-1-carbonyl)isoindolin-2-yl)piperidine-2,6-dione] | B (B represents substrate protein remaining % > 50%) | – | A (A represents 0% ≤ substrate protein remaining % ≤ 50%) | 500 to 1000 nM | B (B represents substrate protein remaining % > 50%) | – | – | – |
| O=C1CCC(N2Cc3cc(C(=O)N4CCN(C(c5cccc(F)c5)c5cccc(F)c5)CC4)cc(F)c3C2=O)C(=O)N1 (stereo not shown) [GT-06147, 3-(5-(4-(bis(3-fluorophenyl)methyl)piperazine-1-carbonyl)-7-fluoro-1-oxoisoindolin-2-yl)piperidine-2,6-dione] | B (B represents substrate protein remaining % > 50%) | – | A (A represents 0% ≤ substrate protein remaining % ≤ 50%) | < 500 nM | B (B represents substrate protein remaining % > 50%) | – | – | – |
| O=C1CCC(N2Cc3c(C(=O)N4CCN(C(c5cccc(F)c5)c5cccc(F)c5)CC4)cccc3C2=O)C(=O)N1 (stereo not shown) [GT-06148, 3-(4-(4-(bis(3-fluorophenyl)methyl)piperazine-1-carbonyl)-1-oxoisoindolin-2-yl)piperidine-2,6-dione] | B (B represents substrate protein remaining % > 50%) | – | A (A represents 0% ≤ substrate protein remaining % ≤ 50%) | < 500 nM | B (B represents substrate protein remaining % > 50%) | – | – | – |
| O=C1CCC(N2Cc3cc(CN4CCN(C(c5ccc(C(F)(F)F)cc5)c5ccc(C(F)(F)F)cc5)CC4)ccc3C2=O)C(=O)N1 (stereo not shown) [GT-06199, 3-(5-((4-(bis(4-(trifluoromethyl)phenyl)methyl)piperazin-1-yl)methyl)-1-oxoisoindolin-2-yl)piperidine-2,6-dione] | A (A represents 0% ≤ substrate protein remaining % ≤ 50%) | 10 to 50 nM | A (A represents 0% ≤ substrate protein remaining % ≤ 50%) | – | A (A represents 0% ≤ substrate protein remaining % ≤ 50%) | – | – | – |
| O=C1CCC(N2C(=O)c3ccc(C(=O)N4CCN(C(c5cccc(F)c5)c5cccc(F)c5)CC4)cc3C2=O)C(=O)N1 (stereo not shown) [GT-06206, 5-(4-(bis(3-fluorophenyl)methyl)piperazine-1-carbonyl)-2-(2,6-dioxopiperidin-3-yl) isoindoline-1,3-dione] | B (B represents substrate protein remaining % > 50%) | – | A (A represents 0% ≤ substrate protein remaining % ≤ 50%) | 1000 to 1900 nM | B (B represents substrate protein remaining % > 50%) | – | – | – |
| O=C1CCC(N2Cc3cc(CN4CCN(C(c5ccccc5)c5ccc(Br)cc5)CC4)ccc3C2=O)C(=O)N1 (stereo not shown) [GT-06640, 3-(5-((4-((4-bromophenyl) (phenyl)methyl)piperazin-1-yl)methyl)-1-oxoisoindolin-2-yl)piperidine-2,6-dione] | A (A represents 0% ≤ substrate protein remaining % ≤ 50%) | – | A (A represents 0% ≤ substrate protein remaining % ≤ 50%) | 500 to 1000 nM | A (A represents 0% ≤ substrate protein remaining % ≤ 50%) | – | – | – |
